Patent US20080274121A1, “Inhibition of Angiogenesis by Mithramycin” (priority 2007, published 2008)

Columns and labels:
PANC-1 cells = PANC-1 cells injected into the pancreas, survival and metastasis; type: in vivo, nude mice; settings: BVZ 25 μg, MIT 0.10 mg/kg, or B+M; compared with PBS
Method: FIG. 12. Prolonged survival of mice that received treatment with BVZ and MIT in xenograft models of human pancreatic cancer. PANC-1 cells were injected into the pancreas of nude mice (17 to 20 mice/group). The mice received treatment as described in FIG. 2. The entire experiment was terminated 120 days after tumor-cell injection. A, animal survival was monitored daily until termination of the experiment. Cum, cumulative. B, tumor growth in the pancreas and metastasis in the liver and/or other organs were evaluated and expressed as the incidence (%).
Statistical analysis. Each experiment was performed independently at least twice with similar results; one representative experiment is presented. The significance of the in vitro data was determined using Student's t-test (two-tailed), whereas the significance of the in vivo data was determined using the two-tailed Mann-Whitney U test. For the in vivo experiments, overall survival was calculated by the method of Kaplan and Meier. Log rank test was used to compare the survival duration between groups. P≦0.05 was deemed significant.
Prolonged survival of xenograft models of human pancreatic cancer that received treatment with BVZ and MIT.

[1] = tested on: Sp1, VEGF, EGFR and PDGFA expression; experiment: Expression of Sp1 and downstream molecules in H727 cells in vitro (Western/Northern blot); type: cell-based, human; settings: 100 μg/ml BVZ, 5 days
Method: FIG. 16. […] H727 cells were incubated in medium or medium containing 0.36 μM MIT for 24 hours. mRNA was extracted for Northern blot analysis of Sp1 expression (A1). H727 and BON-1 cells were incubated in medium or medium containing 0-0.36 μM MIT for 1 to 24 hours. […] B. Chromatin was prepared from the cells and ChIP assay was performed as described in Materials and Methods.
FIG. 18. Effects of treatment with BVZ and MIT on the growth of and gene expression in human carcinoid cells in vitro. A. H727 and BON-1 cells were incubated for 5 days in a medium alone or a medium containing 25 to 100 μg/ml BVZ. The viable cells were counted. B. H727 cells were incubated for 5 days in a medium alone or a medium containing 100 μg/ml BVZ. Total protein lysates were harvested from the cell cultures, and the level of Sp1 and VEGF protein expression was determined using Western blot analysis. Equal protein-sample loading was monitored by probing the same membrane filter with an anti-GAPDH. C. […] Cytotoxicity was assessed using the MTT assay.
Western blot analysis. […] Equal protein-sample loading was monitored by probing the same membrane filter with an antibody against glyceraldehyde-3-phosphate dehydrogenase (GAPDH) (21). The probe proteins were detected using the Amersham enhanced chemiluminescence system according to the manufacturer's instructions. […]

## bevacizumab [BVZ]
PANC-1 cells
  animal survival: slightly increased survival rate
[1]
  expression of Sp1 and VEGF: did not affect the expression of Sp1 or its major downstream molecule, VEGF
